Results taken from patent US5618931A, “Acetylenes disubstituted with a 5 substituted dihydronaphthyl group and with an aryl or heteroaryl group having retinoid-like biological activity” (Allergan, priority 1994, dated 1997).

tested on: ornithine decarboxylase (ODC), TPA-induced activity; assay: ODC assay: inhibition of TPA induction of ornithine decarboxylase; type: biochemical; settings: concentration of the test compound which causes 80% inhibition in the ODC assay (TPA-induced ODC)
From the text: The retinoic acid-like activity of these compounds is confirmed through the classic measure of retinoic acid activity involving the effects of retinoic acid on ornithine decarboxylase. The original work on the correlation between retinoic acid and decrease in cell proliferation was done by Verma & Boutwell, Cancer Research, 1977, 37,2196-2201. That reference discloses that ornithine decarboxylase (ODC) activity increased precedent to polyamine biosynthesis. It has been established elsewhere that increases in polyamine synthesis can be correlated or associated with cellular proliferation. Thus, if ODC activity could be inhibited, cell hyperproliferation could be modulated. Although all cases for ODC activity increases are unknown, it is known that 12-O-tetradecanoylphorbol-13-acetate (TPA) induces ODC activity. […] Activity of exemplary compounds of the present invention in the above-described ODC assay is disclosed in Table 2 which provides the IC80 concentration for the respective exemplary compound. ("IC80 " is that concentration of the test compound which causes 80% inhibition in the ODC assay. By analogy, IC60, for example, is that concentration of the test compound which causes 60% inhibition in the ODC assay.)

| Compound | IC80 conc [nmols] |
| --- | --- |
| CCOC(=O)c1ccc(C#Cc2ccc3c(c2)C(Sc2ccccc2)=CCC3(C)C)cc1 [Compound 155, Ethyl 4-[(7,8-dihydro-8,8-dimethyl-5-phenylthionaphth-3yl)ethynyl]benzoate] | 2.3 |
| CCOC(=O)c1ccc(C#Cc2ccc3c(c2)C(OS(=O)(=O)C(F)(F)F)=CCC3(C)C)cc1 [Compound 66, Ethyl 4-[(5-trifluoromethylsulfonyloxy-7,8-dihydro-8,8-dimethylnapth-3-yl)ethynyl]benzoate] | 17.00 |
| CCOC(=O)c1ccc(C#Cc2ccc3c(c2)C(OC(C)=O)=CCC3(C)C)cc1 [Compound 126, Ethyl 4-[(5-acetoxy-7,8-dihydro-8,8-dimethylnaphth-3-yl)ethynyl]benzoate] | 0.58 |
| CCOC(=O)c1ccc(C#Cc2ccc3c(c2)C(C)(C)CC=C3OC(C)=O)cc1 [Compound 105, Ethyl 4-[(5-acetoxy-7,8-dihydro-8,8-dimethylnaphth-2-yl)ethynyl]benzoate] | 0.76 |
| CCOC(=O)c1ccc(C#Cc2ccc3c(c2)C(C)(C)CC=C3OS(=O)(=O)C(F)(F)F)cc1 [Compound 87, Ethyl 4-[(5-trifluoromethylsulfonyloxy-7,8-dihydro-8,8-dimethylnaphth-2-yl)ethynyl]benzoate] | 16.80 |
| CCOC(=O)c1ccc(C#Cc2ccc3c(c2)C(S(=O)(=O)c2ccccc2)=CCC3(C)C)cc1 [Compound 157, Ethyl 4-[(7,8-dihydro-8,8-dimethyl-5-phenylsulfonylnaphth-3-yl)ethynyl]benzoate] | < 0.1 |

tested on: ornithine decarboxylase (ODC), TPA-induced activity; assay: not given; settings: background statement on retinoic acid; cited from earlier work

| Compound | inhibition of TPA induction of ODC activity (in words) |
| --- | --- |
| CC1=C(/C=C/C(C)=C/C=C/C(C)=C/C(=O)O)C(C)(C)CCC1 [Retinoic acid] | inhibits this induction of ODC activity by TPA |
